PubChem BioAssay AID1963868 (Molecular Pharmacology Branch, DTP, NCI, 2024)
pIC50: −log10 of the molar value. Values joined by “and” are separate entries in the source; they are usually repeats but may differ in a detail not shown here. Identical values can stand only once.

Test system: KRAS PDC tumor spheroids (HUVEC+MSC), viability
Assay: Anticancer human tumor 254851-301-R-J1-PDC patient-derived colon carcinoma cell line growth inhibition [KRAS2]
Settings: for viability, T/C: stronger effect = lower value
Source text: Multicellular complex tumor spheroid response to RAS pathway inhibitors in combination with a targeted agents in patient-derived cell lines with oncogenic KRAS variants from multiple cancer types
A high-throughput screen of multi-cell type tumor spheroids was designed to identify active combinations of targeted small molecules and KRAS pathway inhibitors. Complex spheroids include a stromal component modeled by human endothelial cells (HUVEC) and fibroblasts modeled by human mesenchymal stem cells (MSCs). The concentration ranges selected for each drug and investigational agent were based upon clinically achievable concentrations if the clinical Cmax of the agent was known.
Compounds. The drugs and investigational agents: BI-3406 (NSC825286), BAY-293 (NSC824723), batoprotafib (TNO155; NSC825523), sotorasib (AMG 510; NSC818433), MRTX1257 (NSC819558), elimusertib (BAY 1895344; NSC800525), molibresib (GSK525762; NSC774829), temuterkib (LY3214996; NSC803410), venetoclax (NSC766270), alisertib (NSC759677), olaparib (NSC753686), talazoparib (NSC767125), erdafitinib (NSC781556), ipatasertib (NSC767898), cabozantinib (NSC761068), nintedanib (NSC756659), abemaciclib (NSC768073), docetaxel (NSC628503), trametinib (NSC758246), and sapanisertib (NSC764658) were obtained from the National Cancer Institute (NCI) Developmental Therapeutics Program Chemical Repository. The FDA-approved anticancer drug set is available from the Developmental Therapeutics Program. […] The stock solutions were prepared in dimethyl sulfoxide (DMSO, Sigma-Aldrich, St. Louis, MO, cat. D2650) at 800-fold the tested concentration and stored at -70 degrees C prior to their use. All drugs and investigational agents were tested over a range starting from a high concentration at or near the clinical Cmax and decreasing in half-log increments. If the clinical Cmax for an agent had not been determined, the highest concentration tested was 10 microM.
Cell Culture. All cells were maintained in an incubator at 37 degrees C and 5% CO2 with 95% humidity. The PDC lines were cultured according to standard operating procedures established by the NCI PDMR (https://pdmr.cancer.gov/sops/default.htm). Briefly, all PDCs were thawed and cultured in Matrigel-coated flasks prepared with a working solution of 1X Ham's F-12 nutrient mix, without supplementation (Invitrogen, Waltham, MA, cat. 11765054), 100 U/mL penicillin-streptomycin (Invitrogen, cat. 15140122), and 2.5% Matrigel (Corning Inc., Corning, NY, cat. 354248) for the first three passages. All PDCs were cultured in complete DMEM/F-12 media containing advanced DMEM/F-12 (Invitrogen, cat. 12634028), 4.9% defined fetal bovine serum, heat inactivated (HyClone Laboratories Inc., Logan, UT, cat. SH30070.03HI), 389 ng/mL hydrocortisone (Sigma-Aldrich, cat. H4001), 9.7 ng/mL human EGF recombinant protein (Invitrogen, cat. PHG0313), 23.4 microg/mL adenine (Sigma-Aldrich, cat. A2786), 97.3 U/mL penicillin-streptomycin (Invitrogen, cat. 15140122), 1.9 mM L-glutamine (Invitrogen, cat. 25030081), and 9.7 microM Y-27632 dihydrochloride (Tocris Bioscience, Bristol, United Kingdom, cat. 1254). The PDCs were cultured in complete DMEM/F12 media without 9.7 microM Y-27632 dihydrochloride for at least two passages prior to the screen. The established cell line HOP-62 was cultured in RPMI 1640 medium, HEPES (Invitrogen, cat. 22400105) with 10% defined fetal bovine serum (HyClone Laboratories Inc., cat. SH30070.03) and 2 mM L-glutamine (Invitrogen, cat. 25030081). The pooled donor HUVEC were cultured in endothelial cell growth medium 2 (PromoCell, Heidelberg, Germany, cat. C-22011) and the hMSC were cultured in mesenchymal stem cell growth medium 2 (PromoCell, cat. C-28009). For all experiments, HUVEC and hMSC were used at passages </=5, while the malignant cell lines were used at passages </=15. […]

[1] = curve of first compound, second compound 0.1 µM
[2] = curve of first compound, second compound 0.316 µM
[3] = curve of first compound, second compound 1 µM
[4] = curve of first compound, second compound 3.16 µM
[5] = second compound 0.1 µM, first compound 0.0316 µM
[6] = second compound 0.1 µM, first compound 0.1 µM
[7] = second compound 0.316 µM, first compound 0.0316 µM
[8] = second compound 0.316 µM, first compound 0.1 µM
[9] = second compound 1 µM, first compound 0.0316 µM
[10] = second compound 1 µM, first compound 0.1 µM
[11] = second compound 3.16 µM, first compound 0.0316 µM
[12] = second compound 3.16 µM, first compound 0.1 µM
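Further: spheroids exposed to compounds for seven days before readout.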
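Wherever viability, T/C is given: 100% = DMSO vehicle control luminescence of the spheroids.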

CC1OCC2(CCN(c3cnc(Sc4ccnc(N)c4Cl)c(N)n3)CC2)C1N (stereo unspecified) + C=CC(=O)N1CCN(c2nc(OCC3CCCN3C)nc3c2CCN(c2cccc4cccc(C)c24)C3)CC1CC#N
pIC50 (curve of first compound, second compound 0.0316 µM): < 5.00 | pIC50 [1]: < 5.00 | pIC50 [2]: < 5.00 | pIC50 [3]: < 5.00 | pIC50 [4]: < 5.00 | viability, T/C (second compound 0.0316 µM, first compound 0.0316 µM): 101% | viability, T/C (second compound 0.0316 µM, first compound 0.1 µM): 99.7% | viability, T/C (second compound 0.0316 µM, first compound 0.316 µM): 102% | viability, T/C (second compound 0.0316 µM, first compound 1 µM): 85.4% | viability, T/C (second compound 0.0316 µM, first compound 3.16 µM): 77.2% | viability, T/C (second compound 0.0316 µM, first compound 10 µM): 75.3% | viability, T/C [5]: 115% | viability, T/C [6]: 107% | viability, T/C (second compound 0.1 µM, first compound 0.316 µM): 89.3% | viability, T/C (second compound 0.1 µM, first compound 1 µM): 85.3% | viability, T/C (second compound 0.1 µM, first compound 3.16 µM): 77.1% | viability, T/C (second compound 0.1 µM, first compound 10 µM): 83% | viability, T/C [7]: 89.8% | viability, T/C [8]: 95.6% | viability, T/C (second compound 0.316 µM, first compound 0.316 µM): 93.4% | viability, T/C (second compound 0.316 µM, first compound 1 µM): 84.7% | viability, T/C (second compound 0.316 µM, first compound 3.16 µM): 83.4% | viability, T/C (second compound 0.316 µM, first compound 10 µM): 72.8% | viability, T/C [9]: 59.1% | viability, T/C [10]: 68.1% | viability, T/C (second compound 1 µM, first compound 0.316 µM): 65.3% | viability, T/C (second compound 1 µM, first compound 1 µM): 69% | viability, T/C (second compound 1 µM, first compound 3.16 µM): 66.2% | viability, T/C (second compound 1 µM, first compound 10 µM): 64.8% | viability, T/C [11]: 60.1% | viability, T/C [12]: 58.7% | viability, T/C (second compound 3.16 µM, first compound 0.316 µM): 59.4% | viability, T/C (second compound 3.16 µM, first compound 1 µM): 68.5% | viability, T/C (second compound 3.16 µM, first compound 3.16 µM): 60.6% | viability, T/C (second compound 3.16 µM, first compound 10 µM): 58.9%

CC(C)NCC(C(=O)N1CCN(c2ncnc3c2C(C)CC3O)CC1)c1ccc(Cl)cc1 (stereo unspecified)
viability, T/C (compound 0.0316 µM): 100% and 101% (3×) and 105% | viability, T/C (compound 0.1 µM): 103% [middle of 5 runs] | viability, T/C (compound 0.316 µM): 99.5% [middle of 5 runs] | viability, T/C (compound 1 µM): 104% [middle of 5 runs] | viability, T/C (compound 10 µM): 98.9% [middle of 5 runs] | pIC50 (curve of compound): < 5.00

CN(C)C/C=C/C(=O)Nc1cc2c(Nc3ccc(F)c(Cl)c3)ncnc2cc1O[C@H]1CCOC1 + CC1OCC2(CCN(c3cnc(Sc4ccnc(N)c4Cl)c(N)n3)CC2)C1N
pIC50 [1]: < 7.00 | pIC50 [2]: < 7.00 | pIC50 [3]: < 7.00 | pIC50 [4]: < 7.00 | pIC50 (curve of first compound, second compound 10 µM): 7.20 | viability, T/C (second compound 0.1 µM, first compound 0.000316 µM): 105% | viability, T/C (second compound 0.1 µM, first compound 0.001 µM): 106% | viability, T/C (second compound 0.1 µM, first compound 0.00316 µM): 92.8% | viability, T/C (second compound 0.1 µM, first compound 0.01 µM): 90.2% | viability, T/C [5]: 84.5% | viability, T/C [6]: 65.2% | viability, T/C (second compound 0.316 µM, first compound 0.000316 µM): 94.5% | viability, T/C (second compound 0.316 µM, first compound 0.001 µM): 84.3% | viability, T/C (second compound 0.316 µM, first compound 0.00316 µM): 82.8% | viability, T/C (second compound 0.316 µM, first compound 0.01 µM): 80.2% | viability, T/C [7]: 83.4% | viability, T/C [8]: 68% | viability, T/C (second compound 1 µM, first compound 0.000316 µM): 95.9% | viability, T/C (second compound 1 µM, first compound 0.001 µM): 84.2% | viability, T/C (second compound 1 µM, first compound 0.00316 µM): 88.1% | viability, T/C (second compound 1 µM, first compound 0.01 µM): 91.8% | viability, T/C [9]: 79.8% | viability, T/C [10]: 75.8% | viability, T/C (second compound 3.16 µM, first compound 0.000316 µM): 67.6% | viability, T/C (second compound 3.16 µM, first compound 0.001 µM): 64.1% | viability, T/C (second compound 3.16 µM, first compound 0.00316 µM): 62.8% | viability, T/C (second compound 3.16 µM, first compound 0.01 µM): 60.4% | viability, T/C [11]: 59% | viability, T/C [12]: 51.6% | viability, T/C (second compound 10 µM, first compound 0.000316 µM): 85.5% | viability, T/C (second compound 10 µM, first compound 0.001 µM): 97.7% | viability, T/C (second compound 10 µM, first compound 0.00316 µM): 66.9% | viability, T/C (second compound 10 µM, first compound 0.01 µM): 81.5% | viability, T/C (second compound 10 µM, first compound 0.0316 µM): 51.6% | viability, T/C (second compound 10 µM, first compound 0.1 µM): 46.8%
